Converted amounts (≈) assume the structure as drawn.
Columns and labels:
Type in all cases: functional
Aspergillus niger = experiment: Antifungal activity against Aspergillus niger MTCC 2642 by spectrophotometry based assay
Saccharomyces cerevisiae = experiment: Antifungal activity against Saccharomyces cerevisiae MTCC 1344 by spectrophotometry based assay
Candida albicans = experiment: Antifungal activity against Candida albicans MTCC 3018 by spectrophotometry based assay
[1] = Antifungal activity against Epidermophyton MTCC 613 by spectrophotometry based assay
[2] = Antifungal activity against Cryptococcus gastricus MTCC 1715 by spectrophotometry based assay; conditions: Goffeauzyma gastrica

Question: With `CCOC(=O)C1=CC[C@H]2C(=O)c3ccccc3O[C@H]12` as the compound, how does the MIC (Aspergillus niger) read?
Answer: The MIC was 25 µg/mL (≈ 96.8 µM).

Question: What about the MIC (Saccharomyces cerevisiae) of the same compound?
Answer: The MIC was 50 µg/mL (≈ 194 µM).

Question: And the MIC (Candida albicans)?
Answer: The MIC was 25 µg/mL (≈ 96.8 µM).

Question: And the MIC [1]?
Answer: The MIC was over 100 µg/mL.

Question: Which results are given for `CCOC(=O)C1=CC[C@H]2C(=O)c3ccc(F)cc3O[C@H]12`?
Answer: MIC (Aspergillus niger): 12.5 µg/mL (≈ 45.2 µM); MIC (Saccharomyces cerevisiae): 12.5 µg/mL (≈ 45.2 µM); MIC (Candida albicans): 25 µg/mL (≈ 90.5 µM); MIC [2]: 100 µg/mL (≈ 362 µM); MIC [1]: 50 µg/mL (≈ 181 µM)

Question: For `CCOC(=O)C1=CC[C@H]2C(=O)c3cc(Cl)ccc3O[C@H]12`, which MIC (Aspergillus niger) is on record?
Answer: Its MIC is 12.5 µg/mL (≈ 42.7 µM).

Question: What about the MIC (Saccharomyces cerevisiae) of the same compound?
Answer: Its MIC is over 100 µg/mL.

Question: And the MIC (Candida albicans)?
Answer: The MIC was 50 µg/mL (≈ 171 µM).

Question: With `CCOC(=O)C1=CC[C@H]2C(=O)c3cc(Br)ccc3O[C@H]12` as the compound, how does the MIC (Aspergillus niger) read?
Answer: The MIC was 50 µg/mL (≈ 148 µM).

Question: What about the MIC (Saccharomyces cerevisiae) of the same compound?
Answer: Its MIC is 50 µg/mL (≈ 148 µM).

Question: What does the source list for `CCOC(=O)C1=CC[C@H]2C(=O)c3cc(F)c(Cl)cc3O[C@H]12`?
Answer: MIC (Aspergillus niger): 100 µg/mL (≈ 322 µM); MIC (Saccharomyces cerevisiae): 25 µg/mL (≈ 80.5 µM); MIC (Candida albicans): > 100 µg/mL

Question: Which results are given for `CCOC(=O)C1=CC[C@H]2C(=O)c3cc(C)ccc3O[C@H]12`?
Answer: MIC (Aspergillus niger): > 100 µg/mL; MIC (Saccharomyces cerevisiae): > 100 µg/mL; MIC [1]: > 100 µg/mL

Question: Which MIC (Aspergillus niger) does the source give for `CCOC(=O)C1=CC[C@H]2C(=O)c3ccc(Cl)cc3O[C@H]12` here?
Answer: Its MIC is 25 µg/mL (≈ 85.4 µM).

Question: What about the MIC (Saccharomyces cerevisiae) of the same compound?
Answer: The MIC was 25 µg/mL (≈ 85.4 µM).

Question: What about the MIC (Candida albicans) of the same compound?
Answer: The MIC was 50 µg/mL (≈ 171 µM).

Question: With `CCOC(=O)C1=CC[C@H]2C(=O)c3cc(F)ccc3O[C@H]12` as the compound, how does the MIC (Aspergillus niger) read?
Answer: Its MIC is over 100 µg/mL.

Question: And the MIC (Saccharomyces cerevisiae)?
Answer: Its MIC is 25 µg/mL (≈ 90.5 µM).

Question: What about the MIC [1] of the same compound?
Answer: The MIC was over 100 µg/mL.

Question: Which MIC (Aspergillus niger) does the source give for `CCOC(=O)C1=CC[C@H]2C(=O)c3ccc(Br)cc3O[C@H]12` here?
Answer: Its MIC is 100 µg/mL (≈ 297 µM).

Question: And the MIC (Saccharomyces cerevisiae)?
Answer: The MIC was 100 µg/mL (≈ 297 µM).

Question: For `CCOC(=O)C1=CC[C@H]2C(=O)c3cccc(Cl)c3O[C@H]12`, which MIC (Aspergillus niger) is on record?
Answer: Its MIC is 12.5 µg/mL (≈ 42.7 µM).

Question: And the MIC (Saccharomyces cerevisiae)?
Answer: The MIC was 12.5 µg/mL (≈ 42.7 µM).

Question: And the MIC (Candida albicans)?
Answer: Its MIC is 50 µg/mL (≈ 171 µM).

Question: And the MIC [2]?
Answer: Its MIC is over 100 µg/mL.

Question: And the MIC [1]?
Answer: Its MIC is 50 µg/mL (≈ 171 µM).

Question: With `OC(Cn1cncn1)(Cn1cncn1)c1ccc(F)cc1F` [FLUCONAZOLE] as the compound, how does the MIC (Aspergillus niger) read?
Answer: Its MIC is 1.5 µg/mL (≈ 4.9 µM).

Question: What about the MIC (Saccharomyces cerevisiae) of the same compound?
Answer: The MIC was 1.5 µg/mL (≈ 4.9 µM).

Question: What about the MIC (Candida albicans) of the same compound?
Answer: Its MIC is 3.12 µg/mL (≈ 10.2 µM).

Question: What about the MIC [2] of the same compound?
Answer: Its MIC is 6.25 µg/mL (≈ 20.4 µM).

Question: What about the MIC [1] of the same compound?
Answer: Its MIC is 6.25 µg/mL (≈ 20.4 µM).

Reference: ChEMBL document CHEMBL2046364, “Synthesis and evaluation of novel 3a,9a-dihydro-1-ethoxycarbonyl-1-cyclopenteno[5,4-b]benzopyran-4-ones as antifungal agents” (2012)
